Experiments:
[1] = system: VSV-G pseudotyped lentiviruses; format: cell-based
[2] = system: VSV-G pseudotyped lentiviruses; format: cell-based; conditions: 10 µM
[3] = target: T1, MOS1 (Drosophila mauritiana, UniProt Q7JQ07); test: MOS1 in vitro activities, overall statements of the discussion; format: biochemical, D. mauritiana; conditions: in vitro assays of MOS1 activities; discussion
T1 construct: involving the full-length Mos1 transposase (MOS1) was recently solved; made in house
Protocol: (§1) In vitro transposition reactions were performed using pBC-3T3 as both the donor DNA and the target, as previously described. Briefly, the basic transposition reaction mixtures contained 10 mM Tris-HCl (pH 9), 50 mM NaCl, 20 mM MgCl2, 0.5 mM EDTA, 5% glycerol, 5 ng/ml BSA, 600 ng pBC-3T3, and 80 nM purified MBP-MOS1 (added last) in a volume of 20 µl. Inhibitors (25 or 10 µM, as specified) or DMSO (2%) were added to the reaction mixtures before the transposase. The reactions were allowed to proceed for 30 min at 30°C. After phenol-chloroform extraction and ethanol precipitation, 10% of the reaction mixture was transformed in electro-competent JM109 E. coli (2 mm cuvette, 1.5 kV in a MicroPulser™BioRad). Appropriate dilutions of each reaction mixture were plated on LB-tetracycline (12.5 µg/ml) agar and LB-chloramphenicol (80 µg/ml) agar to score the transposition rate. The transposition rate was the number of Tet^R colonies divided by the number of Chloram^R plus Tet^R colonies. Each condition was done at least three times in independent experiments.
(§2) Basic excision reaction mixtures contained 10 mM Tris-HCl (pH 9), 50 mM NaCl, 20 mM MgCl2, 0.5 mM EDTA, 0.5 mM DTT, 100 ng BSA, 600 ng of super-coiled pBC-3T3, and 80 nM MBP-MOS1 (added last) in a volume of 20 µl. Molecules (25 or 10 µM, as specified) or DMSO (2%) were added to the reaction mixtures before the transposase. The reactions were allowed to proceed at 30°C for 30 min before 2 µl of stop solution (loading buffer) were added. The reaction mixtures were then incubated at 65°C for 10 min. Each reaction was analysed by overnight electrophoresis at 2.7 V/cm on a TAE-buffered 1% agarose gel with ethidium bromide (0.3 mg/ml). After electrophoresis, the gel was photographed on a transilluminator. ImageGauge 4.22 software (Fujifilm) was used to quantify the bands. Each condition was tested at least twice.
These assays were performed using pre-cleaved 3′ITRs (PC-ITR), i.e. ITRs in the configuration expected after excision. Double-strand ITRs were obtained by annealing equimolar amounts of 70-NTS-PN (5′[…]3′) and 70-TS-PC (5′[…]3′) single-strand oligonucleotides. Prior to annealing, the transferred strand (70-TS-PC) was 5′-end labelled using T4 polynucleotide kinase (Promega) and γ-^32P-ATP following the manufacturer's instructions. Oligonucleotides were provided by Eurofins MWG Biotech (Germany) or Eurogentec (Belgium). Reaction mixtures containing 10 mM Tris-HCl (pH 9), 50 mM NaCl, 1 mM DTT, 5% glycerol, 100 ng BSA, 100 nM of labelled PC-ITR and 100 nM MBP-MOS1 in a final volume of 20 µl were incubated at 30°C for 30 min. The pBC plasmid (which contained the cat gene, a hot-spot for Mos1 insertion) was then added to 30 ng/µL along with 5 mM MgCl2. Molecules (25 or 10 µM, as specified) or DMSO (2%) were added to the reaction mixtures along with the target DNA to estimate their effect on integration. Reactions were carried out for 3 hours at 30°C. 0.1 mg/ml proteinase K and 0.1% SDS were added to stop the reaction. DNA products were purified by phenol-chloroform extraction and ethanol precipitated using standard techniques. DNA products were resuspended in DNA loading buffer, then separated onto a 1% agarose gel in 1X TAE (Tris Acetate EDTA) buffer. The gel was dried onto a nitrocellulose membrane (Hybond N+, GE Healthcare), scanned using a Storm, and analysed with ImageQuant software. Signals were quantified using ImageQuant software. Efficiency of integration was calculated as the intensity of the integration signal divided by the intensity of free target signal plus integration signal. Each condition was tested at least twice.
All molecules were also tested in in vitro assays reproducing integration and excision reactions catalysed by MOS1. […] In contrast, E-resveratrol and E-ε-viniferin glucoside, which act more specifically on HIV-1 3′processing reaction, and E-piceid and E-pterostilbene, which is more efficient on the integration reaction, were not active on MOS1.

[4] = target: T2, HIV-1 IN (Human immunodeficiency virus type 1 group M subtype B, UniProt P04585); test: HIV-1 IN in vitro concerted integration assay (processed or unprocessed donor DNA); conditions: for differential effect between reactions: strand transfer / processed donor versus 3′processing / unprocessed donor: comparison of concerted integration and 3′processing results; for inhibitory efficiency compared with raltegravir: concerted integration; for inhibitory efficiency compared with raltegravir / inhibition of concerted integration from processed and unprocessed donor: increasing concentrations
[5] = target: T2, HIV-1 IN; test: HIV-1 IN 3′processing assay; format: biochemical; conditions: 600 nM IN; increasing concentrations
[6] = target: T3, Mos1 transposase (MOS1) (Drosophila mauritiana, UniProt Q7JQ07); test: MOS1 in vitro transposition assay (genetic hop experiment); format: biochemical, D. mauritiana
T3 construct: involving the full-length Mos1 transposase (MOS1) was recently solved; made in house
T3 sequence (Q7JQ07 whole entry): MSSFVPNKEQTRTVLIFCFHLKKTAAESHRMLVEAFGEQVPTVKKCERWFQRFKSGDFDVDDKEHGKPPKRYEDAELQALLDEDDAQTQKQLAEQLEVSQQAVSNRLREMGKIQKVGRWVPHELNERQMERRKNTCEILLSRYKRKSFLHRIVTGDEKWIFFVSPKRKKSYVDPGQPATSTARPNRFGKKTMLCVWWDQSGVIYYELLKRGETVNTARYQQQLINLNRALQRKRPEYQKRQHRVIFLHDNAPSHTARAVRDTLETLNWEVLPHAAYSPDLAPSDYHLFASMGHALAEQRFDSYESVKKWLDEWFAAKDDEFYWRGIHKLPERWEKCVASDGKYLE
Protocol: The wild type Mos1 transposase (MOS1: 345 amino acids) was produced and purified as a fusion protein linked to the maltose-binding protein by using the pMal-c2 system (New England Biolabs) and following the manufacturer's instructions.
as §1
To identify the natural stilbenes active on MOS1, the 17 molecules were tested using an in vitro genetic “hop” experiment, which is the most sensitive test available as yet. Purified MOS1 was incubated with the pBC-3T3 plasmid, which was used both as the transposon donor and the target plasmid. This plasmid contains the pBR322 tetracycline resistance gene (without promoter) framed by two Mos1 ITRs. This reconstitutes a pseudo-Mos1 element named 3T3. We took advantage of the fact that the cat gene (present in the pBC backbone) is a hotspot for Mos1 integration. […] Transposition events were recovered by bacterial transformation with selection for tetracycline resistance, as a gain-of-function landmark for transposition. […] Controls correspond to assays performed without molecule but with DMSO, which is routinely used as the solvent. […] To confirm the efficiency of the six molecules, they were similarly assayed at 10 µM ( figure 6B ). Since they appeared to be still active at 10 µM, they were further characterized in order to identify the targeted step of the transposition cycle.

[7] = target: T3, Mos1 transposase (MOS1); test: MOS1 in vitro excision assay; format: biochemical, D. mauritiana
Protocol: as §2
The ability of the selected molecules to inhibit excision was tested in vitro using the pBC-3T3 plasmid as the transposon donor. MOS1 triggers the excision of the pseudo-Mos1 from the plasmid producing two linear DNA fragments, the transposon and the plasmid backbone, together with intermediate products (open circle plasmids which contained single strand nicks and linear plasmids which contained a double strand nick at one ITR). After excision, the transposon could be reintegrated, making it difficult to detect in electrophoresis. The activity of the molecules was measured by quantifying the plasmid backbone, the end product of the reaction. The assays were performed with final concentrations of 25 and 10 µM molecules. Controls correspond to assays performed without molecule but with DMSO. […] Reactions were performed at least twice for each selected molecules (leachianol G, leachianol F, quadrangularin A, hopeaphenol, vitisin B and pallidol) and the excision activity is reported in figure 7B . […] The six selected molecules were then tested for the integration step of Mos1 transposition.

[8] = system: topoisomerase II; parameters: method as in PMID 16508191; conditions: cited from earlier work

T1 sequence (Q7JQ07 whole entry): as above

SMILES | integration inhibition evaluated by GFP fluorescence [1] | 1LTR circles amount [2] | 2LTR circles DNA [2] | integrated DNA amount [2] | total viral DNA amount [2] | activity on MOS1 [3] | differential effect between reactions: strand transfer / processed donor versus 3′processing / unprocessed donor [4] | inhibitory efficiency compared with raltegravir [4] | inhibition of concerted integration from processed and unprocessed donor [4] | inhibitory effect on 3′processing [5] | activity against MOS1 in transposition assay ([6]; 10 µM) | inhibition of the whole MOS1 transposition activity ([6]; 25 µM, DMSO control as reference) | inhibition at 25 µM ([7]; 25 µM, DMSO control as reference, read-out: inhibition of in vitro excision reaction) [%] | IC50 ([7]; concentration range, sigmoid dose-response fit) [µM] | topoisomerase II inhibition [8] | inhibition of concerted integration ([4]; 50 µM, both activities (processed and unprocessed donor))
COc1cc(/C=C/c2ccc(O)cc2)cc(OC)c1 [E-pterostilbene] | found to induce an integration inhibition | no decrease | non significant increase | slight but reproducible decrease | No significant change | not active | more active on strand transfer reaction than | inhibitory efficiencies close to raltegravir | inhibited both activities | – | – | – | – | – | – | –
Oc1ccc(C(O)C2c3cc(O)cc(O)c3[C@H](c3ccc(O)cc3)[C@H]2c2cc(O)cc(O)c2)cc1 (some centres unmarked) [leachianol F] | – | – | – | – | – | also active against MOS1 activities | active on both reactions | inhibitory efficiencies close to raltegravir | inhibited both activities | showed an inhibitory effect | still active | over 50% | > 50 | 30 | potent topoisomerase II inhibitors | 30–60%
